In patent publication US8952024B2, “Herbicidal pyrimidone derivatives” (E I du Pont de Nemours and Company, priority 2009, dated 2015):

Experiments:
Assay in all cases: Test B pre-/postemergence plant response
Format in all cases: in vivo
soybean (Glycine max) = test system: soybean (Glycine max)
Summary of the method: (§1)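 Plants treated either at seeding (loam/sand soil) or postemergence at 2 to 18 cm height, using a surfactant-containing non-phytotoxic solvent formulation. Evaluation was visual after 13 to 15 days, 0 to 100 scale relative to controls.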

[1] = test system: goosegrass (Eleusine indica)
Summary of the method: as §1

corn (Zea mays) = test system: corn (Zea mays)
Summary of the method: as §1

kochia (Kochia scoparia) = test system: kochia (Kochia scoparia)
Summary of the method: as §1

[2] = test system: woolly cupgrass (Eriochloa villosa)
Summary of the method: as §1

[3] = test system: Italian ryegrass (Lolium multiflorum)
Summary of the method: as §1

[4] = test system: johnsongrass (Sorghum halepense)
Summary of the method: as §1

[5] = test system: velvetleaf (Abutilon theophrasti)
Summary of the method: as §1

[6] = test system: large crabgrass (Digitaria sanguinalis)
Summary of the method: as §1

[7] = test system: pigweed (Amaranthus retroflexus)
Summary of the method: as §1

[8] = test system: wheat (Triticum aestivum)
Summary of the method: as §1

wild oat (Avena fatua) = test system: wild oat (Avena fatua)
Summary of the method: as §1

[9] = test system: yellow nutsedge (Cyperus esculentus)
Summary of the method: as §1

[10] = test system: blackgrass (Alopecurus myosuroides)
Summary of the method: as §1

[11] = test system: lambsquarters (Chenopodium album)
Summary of the method: as §1

[12] = test system: ragweed (common ragweed, Ambrosia elatior)
Summary of the method: as §1

[13] = test system: downy bromegrass (Bromus tectorum)
Summary of the method: as §1

[14] = test system: Surinam grass (Brachiaria decumbens)
Summary of the method: as §1

[15] = 16 g ai/ha, Postemergence, 0 to 100 scale
[16] = 31 g ai/ha, postemergence, scale 0 to 100, 0 is no effect, 100 is complete control
[17] = 62 g ai/ha, postemergence, 0 is no effect, 100 is complete control, 13 to 15 days
[18] = Postemergence, 125 g ai/ha, visual rating after 13 to 15 days, scale 0 (no effect) to 100 (complete control)
[19] = Preemergence, 16 g ai/ha, scale 0 to 100, 0 no effect, 100 complete control
[20] = Preemergence, 31 g ai/ha, scale 0 to 100 (0 no effect, 100 complete control)
[21] = Preemergence, 62 g ai/ha, scale 0 to 100, 0 no effect, 100 complete control
[22] = Preemergence, 125 g ai/ha, scale 0 to 100, 0 no effect, 100 complete control

## O=C1CCCC(O)=C1C(=O)c1cnc(-c2cccc(Br)c2)n(-c2ccccc2)c1=O [Compound 69]
Soybean (Glycine max); [15]
  Plant response rating, Soybean: 45
Soybean (Glycine max); [16]
  Plant response rating, Soybean: 80
Soybean (Glycine max); [17]
  Soybean plant response rating (0 to 100 scale): 90
Soybean (Glycine max); [18]
  Plant response rating, Soybean: 98
[1]; [15]
  Plant response rating, Goosegrass: 75
[1]; [16]
  Plant response rating, Goosegrass: 75
[1]; [17]
  Goosegrass plant response rating (0 to 100 scale): 80
[1]; [18]
  Plant response rating, Goosegrass: 85
[1]; [19]
  Plant response rating, Goosegrass: 55
[1]; [20]
  Plant response rating, Goosegrass: 95
[1]; [21]
  Plant response rating, Goosegrass: 100
[1]; [22]
  Plant response rating, Goosegrass: 100
Corn (Zea mays); [15]
  Plant response rating, Corn: 0
Corn (Zea mays); [16]
  Plant response rating, Corn: 5
Corn (Zea mays); [17]
  Corn plant response rating (0 to 100 scale): 10
Corn (Zea mays); [18]
  Plant response rating, Corn: 25
Corn (Zea mays); [19]
  Plant response rating, Corn: 0
Corn (Zea mays); [20]
  Plant response rating, Corn: 0
Corn (Zea mays); [21]
  Plant response rating, Corn: 0
Corn (Zea mays); [22]
  Plant response rating, Corn: 0
Kochia (Kochia scoparia); [15]
  Plant response rating, Kochia: 60
Kochia (Kochia scoparia); [16]
  Plant response rating, Kochia: 60
Kochia (Kochia scoparia); [17]
  Kochia plant response rating (0 to 100 scale): 70
Kochia (Kochia scoparia); [18]
  Plant response rating, Kochia: 80
Kochia (Kochia scoparia); [20]
  Plant response rating, Kochia: 0
Kochia (Kochia scoparia); [21]
  Plant response rating, Kochia: 20
Kochia (Kochia scoparia); [22]
  Plant response rating, Kochia: 45
[2]; [15]
  Plant response rating, Cupgrass, Woolly: 75
[2]; [16]
  Plant response rating, Cupgrass, Woolly: 90
[2]; [17]
  Cupgrass, Woolly plant response rating (0 to 100 scale): 95
[2]; [18]
  Plant response rating, Cupgrass, Woolly: 95
[2]; [19]
  Plant response rating, Cupgrass, Woolly: 0
[2]; [20]
  Plant response rating, Cupgrass, Woolly: 0
[2]; [21]
  Plant response rating, Cupgrass, Woolly: 0
[2]; [22]
  Plant response rating, Cupgrass, Woolly: 45
[3]; [15]
  Plant response rating, Ryegrass, Italian: 0
[3]; [16]
  Plant response rating, Ryegrass, Italian: 30
[3]; [17]
  Ryegrass, Italian plant response rating (0 to 100 scale): 50
[3]; [18]
  Plant response rating, Ryegrass, Italian: 50
[3]; [20]
  Plant response rating, Ryegrass, Italian: 0
[3]; [21]
  Plant response rating, Ryegrass, Italian: 0
[3]; [22]
  Plant response rating, Ryegrass, Italian: 0
[4]; [15]
  Plant response rating, Johnsongrass: 75
[4]; [16]
  Plant response rating, Johnsongrass: 98
[4]; [17]
  Johnsongrass plant response rating (0 to 100 scale): 100
[4]; [18]
  Plant response rating, Johnsongrass: 100
[4]; [19]
  Plant response rating, Johnsongrass: 0
[4]; [20]
  Plant response rating, Johnsongrass: 5
[4]; [21]
  Plant response rating, Johnsongrass: 45
[4]; [22]
  Plant response rating, Johnsongrass: 85
[5]; [15]
  Plant response rating, Velvetleaf: 75
[5]; [16]
  Plant response rating, Velvetleaf: 95
[5]; [17]
  Velvetleaf plant response rating (0 to 100 scale): 98
[5]; [18]
  Plant response rating, Velvetleaf: 98
[5]; [20]
  Plant response rating, Velvetleaf: 70
[5]; [21]
  Plant response rating, Velvetleaf: 70
[5]; [22]
  Plant response rating, Velvetleaf: 85
[6]; [15]
  Plant response rating, Crabgrass, Large: 95
[6]; [16]
  Plant response rating, Crabgrass, Large: 95
[6]; [17]
  Crabgrass, Large plant response rating (0 to 100 scale): 95
[6]; [18]
  Plant response rating, Crabgrass, Large: 98
[6]; [19]
  Plant response rating, Crabgrass, Large: 75
[6]; [20]
  Plant response rating, Crabgrass, Large: 98
[6]; [21]
  Plant response rating, Crabgrass, Large: 100
[6]; [22]
  Plant response rating, Crabgrass, Large: 100
[7]; [15]
  Plant response rating, Pigweed: 95
[7]; [16]
  Plant response rating, Pigweed: 98
[7]; [17]
  Pigweed plant response rating (0 to 100 scale): 100
[7]; [18]
  Plant response rating, Pigweed: 100
[7]; [19]
  Plant response rating, Pigweed: 95
[7]; [20]
  Plant response rating, Pigweed: 98
[7]; [21]
  Plant response rating, Pigweed: 100
[7]; [22]
  Plant response rating, Pigweed: 100
[8]; [15]
  Plant response rating, Wheat: 0
[8]; [16]
  Plant response rating, Wheat: 5
[8]; [17]
  Wheat plant response rating (0 to 100 scale): 5
[8]; [18]
  Plant response rating, Wheat: 10
[8]; [20]
  Plant response rating, Wheat: 0
[8]; [21]
  Plant response rating, Wheat: 0
[8]; [22]
  Plant response rating, Wheat: 0
Wild oat (Avena fatua); [15]
  Plant response rating, Oat, Wild: 50
Wild oat (Avena fatua); [16]
  Plant response rating, Oat, Wild: 60
Wild oat (Avena fatua); [17]
  Oat, Wild plant response rating (0 to 100 scale): 80
Wild oat (Avena fatua); [18]
  Plant response rating, Oat, Wild: 85
Wild oat (Avena fatua); [19]
  Plant response rating, Oat, Wild: 0
Wild oat (Avena fatua); [20]
  Plant response rating, Oat, Wild: 0
Wild oat (Avena fatua); [21]
  Plant response rating, Oat, Wild: 0
Wild oat (Avena fatua); [22]
  Plant response rating, Oat, Wild: 0
[9]; [15]
  Plant response rating, Nutsedge, Yellow: 5
[9]; [16]
  Plant response rating, Nutsedge, Yellow: 5
[9]; [17]
  Nutsedge, Yellow plant response rating (0 to 100 scale): 10
[9]; [18]
  Plant response rating, Nutsedge, Yellow: 40
[9]; [19]
  Plant response rating, Nutsedge, Yellow: 0
[9]; [20]
  Plant response rating, Nutsedge, Yellow: 0
[9]; [21]
  Plant response rating, Nutsedge, Yellow: 0
[9]; [22]
  Plant response rating, Nutsedge, Yellow: 0
[10]; [15]
  Plant response rating, Blackgrass: 0
[10]; [16]
  Plant response rating, Blackgrass: 0
[10]; [17]
  Blackgrass plant response rating (0 to 100 scale): 0
[10]; [18]
  Plant response rating, Blackgrass: 0
[10]; [19]
  Plant response rating, Blackgrass: 0
[10]; [20]
  Plant response rating, Blackgrass: 0
[10]; [21]
  Plant response rating, Blackgrass: 0
[10]; [22]
  Plant response rating, Blackgrass: 0
[11]; [15]
  Plant response rating, Lambsquarters: 100
[11]; [16]
  Plant response rating, Lambsquarters: 100
[11]; [17]
  Lambsquarters plant response rating (0 to 100 scale): 100
[11]; [18]
  Plant response rating, Lambsquarters: 100
[11]; [19]
  Plant response rating, Lambsquarters: 95
[11]; [20]
  Plant response rating, Lambsquarters: 98
[11]; [21]
  Plant response rating, Lambsquarters: 100
[11]; [22]
  Plant response rating, Lambsquarters: 100
[12]; [15]
  Plant response rating, Ragweed: 75
[12]; [16]
  Plant response rating, Ragweed: 90
[12]; [17]
  Ragweed plant response rating (0 to 100 scale): 90
[12]; [18]
  Plant response rating, Ragweed: 100
[12]; [20]
  Plant response rating, Ragweed: 65
[12]; [21]
  Plant response rating, Ragweed: 65
[12]; [22]
  Plant response rating, Ragweed: 65
[13]; [15]
  Plant response rating, Bromegrass, Downy: 30
[13]; [16]
  Plant response rating, Bromegrass, Downy: 40
[13]; [17]
  Bromegrass, Downy plant response rating (0 to 100 scale): 55
[13]; [18]
  Plant response rating, Bromegrass, Downy: 70
[13]; [19]
  Plant response rating, Bromegrass, Downy: 0
[13]; [20]
  Plant response rating, Bromegrass, Downy: 0
[13]; [21]
  Plant response rating, Bromegrass, Downy: 0
[13]; [22]
  Plant response rating, Bromegrass, Downy: 0
[14]; [15]
  Plant response rating, Surinam Grass: 75
[14]; [16]
  Plant response rating, Surinam Grass: 85
[14]; [17]
  Surinam Grass plant response rating (0 to 100 scale): 90
[14]; [18]
  Plant response rating, Surinam Grass: 100
[14]; [20]
  Plant response rating, Surinam Grass: 80
[14]; [21]
  Plant response rating, Surinam Grass: 100
[14]; [22]
  Plant response rating, Surinam Grass: 100
